Data: patent publication US20210348119A1, “COMPOSITIONS AND METHODS FOR CELL CULTURE” (The United States of America as Represented By The …, priority 2018, published 2021)
Where “and” joins values, the source holds several entries; their conditions need not be identical. Equal values may be shown once. Where a name gives a salt, the structure may show the parent alone. Read-outs that look alike come from different tables or passages of the source.

Test system: H9 cells
Test: qHTS for survival of dissociated H9 cells (CellTiter-Glo, 24 hours after seeding)
Type: cell-based, human
Text: FIG. 2 schematically illustrates qHTS procedure.
All the screed compounds were received pre-plated at the pre-determined concentrations. […] Curve classification is explained in Huang et al. “Chemical genomics profiling of environmental chemical modulation of human nuclear receptors” Environ. Health. Perspect.

[1] = H9 cell survival normalized to 10 μM Y-27632 (taken to be 100%)
[2] = H9 cell survival, CellTiter-Glo 24 hours after seeding; read-out: AC50 (concentration at 50% efficacy)
[3] = H9 cell survival, normalized to 10 μM Y-27632
[4] = Homo sapiens, H9, 24 h, H9 cell survival normalized to 10 μM Y-27632 (taken to be 100%); read-out: Max (maximum activity value from all tested concentrations)
[5] = Homo sapiens, H9, 24 h, H9 cell survival, normalized to 10 μM Y-27632; read-out: Efficacy (activity range between predicted activities at zero and infinite doses, Hill equation)
[6] = Homo sapiens, H9, 24 h, H9 cell survival, CellTiter-Glo 24 hours after seeding; read-out: AC50 (concentration at 50% efficacy)

SMILES | Max (maximum activity value from all tested concentrations) [1] | AC50 [2] [µM] | Efficacy (activity range between predicted activities at zero and infinite doses, Hill equation) [3] | Emax [4] [%] | Emax [5] [%] | AC50 [6] [µM] | further results
O=c1[nH]c2ccc(Cl)cc2c(N[C@@H]2CN3CCC2CC3)c1-c1nc2ccccc2[nH]1 [CHIR-124] | 21.27% | 0.235 | 12.4 | – | – | – | –
Cc1[nH]c2ccccc2c1CCNC(=O)c1cccs1 [CK-636] | 47.74% | – | 0 | – | – | – | –
COCCOc1ccc2c(c1)ncn2-c1ccc2cccc(N3CCC(N)CC3)c2n1 [CP-673451] | – | – | – | 35.6 | 0 | – | –
COCC(=O)NC/C=C/c1ccc2ncnc(Nc3ccc(Oc4ccc(C)nc4)c(C)c3)c2c1 [CP-724714] | – | – | – | 21.2 | 23.5 | 20.8 | –
CCS(=O)(=O)N1CCN(c2ccc(Nc3ncc(C(N)=O)c(NC4CC4)n3)cc2)CC1 [Cerdulatinib] | – | – | – | 39 | 33.6 | 2.93 | –
C=C1[C@@H](C)[C@H]2[C@H](Cc3ccccc3)NC(=O)[C@]23OC(=O)/C=C/[C@H](O)CCC[C@@H](C)C/C=C/[C@H]3[C@@H]1O [Cytochalasin B] | 14.14% | 7.5 | 43.2 | – | – | – | –
Cc1c(O)c(O)cc2c1CC=C1[C@@]2(C)CC[C@@]2(C)[C@@H]3C[C@](C)(C(=O)O)CC[C@]3(C)CC[C@]12C [DIHYDROCELASTROL] | – | – | – | – | – | – | Emax (Homo sapiens, H9, 24 h; read-out: Efficacy (activity range between predicted activities at zero and infinite doses, Hill equation)): 26.1%; Emax (Homo sapiens, H9, 24 h; read-out: Max (maximum activity value from all tested concentrations)): 21.2%; AC50 (Homo sapiens; H9 cell survival, CellTiter-Glo 24 hours after seeding; read-out: AC50 (concentration at 50% efficacy)): 14.7 µM
CC(C)(C)c1nc(-c2cccc(NS(=O)(=O)c3c(F)cccc3F)c2F)c(-c2ccnc(N)n2)s1 [Dabrafenib] | – | – | – | 22 | 21.7 | 14.8 | –
CC[C@@](C)(Nc1ccnc(-c2c[nH]c3ncccc23)n1)C(=O)NCC(F)(F)F [Decernotinib] | – | – | – | 34 | 30.1 | 2.93 | –
Cn1c(=O)c2c(ncn2CC2OCCO2)n(C)c1=O [Doxofylline] | – | – | – | – | – | 0.521 | Emax (Homo sapiens, H9, 24 h, read-out: Efficacy (activity range between predicted activities at zero and infinite doses, Hill equation)): 12.1%; Emax (Homo sapiens, H9, 24 h, read-out: Max (maximum activity value from all tested concentrations)): 22.5%
CC1=NN(c2ccccc2)C(=O)C1 [Edaravone] | – | – | – | 21 | 11 | 0.521 | –
O=S(=O)(c1cccc2cnccc12)N1CCCNCC1 [Fasudil hydrochloride] | – | – | – | 107 | 127 | 33.2 | –
CNCCC(Oc1ccc(C(F)(F)F)cc1)c1ccccc1 (stereo not drawn) [Fluoxetine hydrochloride] | – | – | – | 70.4 | 0 | – | –
CC1(C)[C@@H](O[C@H]2O[C@H](C(=O)O)[C@@H](O)[C@H](O)[C@H]2O[C@@H]2O[C@H](C(=O)O)[C@@H](O)[C@H](O)[C@H]2O)CC[C@]2(C)[C@H]3C(=O)C=C4[C@@H]5C[C@@](C)(C(=O)O)CC[C@]5(C)CC[C@@]4(C)[C@]3(C)CC[C@@H]12.N [GLYCYRRHIZIC ACID. AMMONIUM SALT] | 23.95% | 14.7 | 26 | – | – | – | –
CC1=C(C(=O)Nc2cc3cn[nH]c3cc2F)C(c2ccc(Cl)cc2F)N=C(c2ccnc(Cl)c2)N1 (stereo not drawn) [GSK-25] | 121.1% and 113.3% | – | 118 and 113 | – | – | – | –
CCn1c(-c2nonc2N)nc2cnc(Oc3cccc(NC(=O)c4ccc(OCCN5CCOCC5)cc4)c3)cc21 [GSK-269962A] | 133.3% | 11.8 | 106 | – | – | – | –
CC1=C(C(=O)Nc2cc3cn[nH]c3cc2F)C(c2ccc(C(F)(F)F)cc2)CC(=O)N1 (stereo not drawn) [GSK-429286A] | 129.3% | 3.32 | 126 | – | – | – | –
Cc1cncc2cccc(S(=O)(=O)N3CCCN(C(=O)CN)C[C@@H]3C)c12 [Glycyl-H-1152] | – | – | – | 121 | – | – | –
Cn1c2ccccc2c2c3c(c4c5ccccc5n(CCC#N)c4c21)CNC3=O [Go-6976] | – | – | – | 49.1 | 37.3 | 4.69 | –
Cl.Cl.O=S(=O)(NCCNC/C=C/c1ccc(Br)cc1)c1cccc2cnccc12 [H-89] | 25.95% | 1.87 | 16.9 | – | – | – | –
O=S(=O)(c1cccc2cnccc12)N1CCNCC1 [HA-100] | 88.17% | 7.31 | 88.9 | – | – | – | –
Cl.NC(N)=NCCNS(=O)(=O)c1cccc2cnccc12 [HA-1004 hydrochloride] | 50.05% | 5.17 | 50 | – | – | – | –
